Experimental data: article PMC9460038, “Antigiardial Activity of Foeniculum vulgare Hexane Extract and Some of Its Constituents” (Plants, 2022)
In brackets after ≈: the same amount, converted by molar mass. Where two headings read alike, the source gives them in different places.

Experiments:
[1] = test system: Vero cells; assay: Cytotoxic activity on Vero cell line (Trypan blue, 24 h); type: cell-based; conditions: for IC50: Chlorocebus sabaeus, read-out: Vero Cells IC50 (IC95%); for IC50 / Vero Cells IC50 (IC95%): 24 h; for Selectivity Index (SI): ratio of IC50 in Vero cells to IC50 in G. duodenalis
Experimental: Cytotoxicity assay was performed on Vero cell line (ATCC CCL-81), as previously described. Briefly, Vero cells were cultivated in Roswell Park Memorial Institute (RPMI) medium supplemented with 10% fetal bovine serum (FBS). […] Each compound was dissolved in dimethyl sulfoxide (DMSO) and sterilized by filtration, and brought to final concentrations of 487, 243.5, 121.75 and 60.875 μg/mL with RPMI medium supplemented with 10% FBS. The cell suspension was adjusted to 1 × 10^4 cells/mL with RPMI medium supplemented with 10% FBS. Cell suspension (200 μL) was placed into a 96-well plate and incubated at 37 °C in a 5% CO2 atmosphere for 24 h. Each compound solution was added to each well containing the Vero cells and incubated for 24 h. The assay was carried out in triplicate. The number of cells were determined in a Neubauer chamber, while the percentage of viable cells was measured with the Trypan blue staining method.
The SI is the ratio of the IC50 concentration in host cells (Vero cells) to that in parasite (G. duodenalis).

[2] = test system: G. duodenalis trophozoites; assay: Antigiardial activity, vial microassay (growth inhibition of trophozoites, 24 h); conditions: for inhibition at 300 µg/mL / IC50: Giardia duodenalis; for inhibition at 300 µg/mL: read-out: % Inhibition at 300 μg/mL; for G. duodenalis IC50 (IC95%): trophozoites, Probit, 95% confidence limits in brackets; for % Inhibition at 300 μg/mL: G. duodenalis trophozoites
Experimental: G. duodenalis strain 0989: IMSS was used. G. duodenalis was cultured in TYI-S-33 media supplemented with bile, as previously described [26]. G. duodenalis trophozoites were sub-cultured three times a week. Parasites used in the assays to determine drug susceptibility were harvested when cultures reached the middle of their logarithmic growth phase.
The concentration of all standard drugs was adjusted to 10 mg/mL. Metronidazole (used as a positive control), and pure compounds were dissolved in (DMSO). All stock solutions were stored at –20 °C until use. Before use in the assays, serial two-fold dilutions of the stock solutions were made in basal TYI medium (without serum). Fifty micro liters of each solution was added into 1 mL glass screw-capped cylindrical vials with a conical interior (Wheaton vial). All vials were filled with 950 μL of a freshly prepared parasite suspension in TYI-S-33 medium plus 10 % bovine serum. G. duodenalis was tested at density of 2 × 10^5 trophozoites/mL. All vials were incubated at 36 °C for 24 h. The vials were then chilled on iced water for 20 min, and the number of trophozoites per milliliter in each tube were counted using a hemocytometer (Neubauer cell-counter chamber) [29]. The percentage of growth inhibition with respect to untreated controls was then determined.
All experiments were performed in triplicate and in at least three independent bioassays (n = 9 cultures for each analyzed compound). The data were analyzed using GraphPad Prism software version 5.0 (USA). The half-maximum inhibitory concentration (IC50) of each drug was calculated by Probit analysis and 95% confidence limits were calculated.

[3] = test system: Mycobacterium tuberculosis H37Rv; set-up: method as in PMID 22797778; conditions: sensitive strain H37Rv; cited from earlier work
[4] = source not stated; cited from earlier work
[5] = Vero cells, Probit, 95% confidence limits in brackets
[6] = read-out: G. duodenalis IC50 (IC95%), trophozoites, 24 h, Probit, 95% confidence limits in brackets

For C=CCc1ccc(OC)cc1 [Estragole], the IC50 ([1]; Vero) was 259 µg/mL (≈ 1750 µM), the “Selectivity Index (SI)” value [1] was 1.7 and the inhibition at 300 µg/mL [2] was 49%. It also gave an IC50 ([2]; read-out: G. duodenalis IC50 (IC95%)) of 150 µg/mL (≈ 1010 µM).
In the case of CCCCCCCCCCC=O [Undecanal], the inhibition at 300 µg/mL [2] was 25%.
For CCCCCC/C=C/C=C/C=O [Trans, trans-2,4-undecadienal, trans, trans-2,4-undecadienal], the IC50 [1, 5] is given as 589 µg/mL (≈ 3540 µM), the “Selectivity Index (SI)” value [1] is given as 8.1 and the MIC [3] is given as 25 µg/mL (≈ 150 µM). The “log P” value [4] was 3.8, the inhibition at 300 µg/mL [2] was 97% and the IC50 [2, 6] was 72.1 µg/mL (≈ 434 µM). For the same molecule, the “G. duodenalis IC50 (IC95%)” value [2] was 72.1 (57.7–90.1) μg/mL.
For CC1(C)C(=O)[C@@]2(C)CCC1C2 [(S) (+)-Fenchone], the “% Inhibition at 300 μg/mL” value [2] was 16%.
In the case of (R) (−)-Carvone, the “Vero Cells IC50 (IC95%)” value [1, 5] was 350.7 (348.4–353.0) μg/mL, the “% Inhibition at 300 μg/mL” value [2] was 66% and the “G. duodenalis IC50 (IC95%)” value [2] was 207.0 (162.2–267.3) μg/mL.
For CC(C)=CCC[C@@H](C)CCO [(R)- (+)-β-Citronellol], the “% Inhibition at 300 μg/mL” value [2] was 38%.
With Cc1ccccc1C(C)C [o-Cymene] the “% Inhibition at 300 μg/mL” value [2] was 30%.
In the case of CC1=CCC(C(C)C)=CC1 [γ-Terpinene], the inhibition at 300 µg/mL [2] was 24%.
For CC1(C)C(=O)[C@]2(C)CCC1C2 [(R) (−)-Fenchone], the “% Inhibition at 300 μg/mL” value [2] was 6.5%.
Molecule CC(C)(O)C(C)(C)O [Pinacol] has an inhibition at 300 µg/mL [2] of 2%.
Work on CCCCCCCC/C=C\CCCCCCCC(=O)O [Oleic acid] yielded an inhibition at 300 µg/mL [2] of 24%.
In the case of COc1ccc(C=O)cc1 [p-Anisaldehyde], the IC50 [1, 5] was 541 µg/mL (≈ 3970 µM), the “Selectivity Index (SI)” value [1] was 2.7 and the inhibition at 300 µg/mL [2] was 67%. The IC50 [2, 6] was 197 µg/mL (≈ 1450 µM).
For Cc1ncc([N+](=O)[O-])n1CCO [Metronidazole, reference compound], the IC50 [1, 5] was 83.5 µg/mL (≈ 488 µM), the inhibition at 300 µg/mL [2] was 100% and the IC50 [2, 6] was 0.5 µg/mL (≈ 2.92 µM).
For CC(C)[C@]12CC(=O)[C@H](C)[C@H]1C2 [(−)-α-Tujone], the “% Inhibition at 300 μg/mL” value [2] was 14%.
With Oc1cccc(O)c1 [1,3-Benzenediol] the IC50 [1, 5] was 438 µg/mL (≈ 3980 µM), the “Selectivity Index (SI)” value [1] was 2.5 and the inhibition at 300 µg/mL [2] was 56%. It also gave an IC50 [2, 6] of 169 µg/mL (≈ 1530 µM).
Molecule CC1=CCC(=C(C)C)CC1 [Terpinolene] has an inhibition at 300 µg/mL [2] of 30%.
With CC(=O)OC1C2(C)CCC(C2)C1(C)C (stereo not shown) [Fenchylacetate] the “% Inhibition at 300 μg/mL” value [2] was 38.5%.
In the case of C/C=C/c1ccc(OC)cc1 [Trans-anethol], the “% Inhibition at 300 μg/mL” value [2] was 17%.
In the case of C=C1[C@H]2CC[C@H](C2)C1(C)C [(1R,4S) (+)-Camphene], the “Vero Cells IC50 (IC95%)” value [1, 5] was 494.3 (492.1–496.4) μg/mL, the “% Inhibition at 300 μg/mL” value [2] was 61% and the “G. duodenalis IC50 (IC95%)” value [2] was 181.1 (158.1–207.9) μg/mL.
